Test results taken from patent US9434747B2, “Methods of treating diabetes” (Medivation Technologies, Inc., priority 2011, dated 2016).

Legend:
[1] = biological target: T1, human recombinant adrenergic α2A receptor (Homo sapiens, UniProt P08913); test: Radioligand binding assay, adrenergic α2A ([3H]MK-912); settings: compound at 0.1 μM; 1 nM [3H]MK-912; Sf9 cells; read-out: Percentage inhibition of ligand binding, Adrenergic α2A
T1 construct: expressed in transfected cells; host or cells: insect Sf9 cells
T1 sequence (P08913 1-465): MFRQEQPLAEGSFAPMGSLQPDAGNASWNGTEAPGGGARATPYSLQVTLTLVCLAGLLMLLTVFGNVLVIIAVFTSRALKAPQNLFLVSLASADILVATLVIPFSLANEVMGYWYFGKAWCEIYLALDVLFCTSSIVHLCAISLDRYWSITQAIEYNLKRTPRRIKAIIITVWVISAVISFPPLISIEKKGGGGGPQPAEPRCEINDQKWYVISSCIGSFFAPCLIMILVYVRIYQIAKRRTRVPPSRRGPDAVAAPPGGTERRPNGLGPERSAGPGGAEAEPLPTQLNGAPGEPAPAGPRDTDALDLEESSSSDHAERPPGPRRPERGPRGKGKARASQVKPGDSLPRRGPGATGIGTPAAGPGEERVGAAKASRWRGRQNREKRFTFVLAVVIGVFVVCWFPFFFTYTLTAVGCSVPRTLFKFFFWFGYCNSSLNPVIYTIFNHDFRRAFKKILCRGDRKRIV
Description: To evaluate in radioligand binding assays the activity of compounds, human recombinant adrenergic α2A receptor expressed in insect Sf9 cells (Uhlen, S. et al, J. Pharmacol. Exp. Ther. 271:1558, 1994) in a modified Tris-HCl buffer (50 mM Tris-HCl, pH 7.4, 12.5 mM MgCl2, 2 mM EDTA) was used. Compounds were incubated with 1 nM [^3H]MK-912 for 60 min at 25° C. MK912 is (2S-trans)-1,3,4,5′,6,6′,7,12b-octahydro-1′,3′-dimethyl-spiro[2H-benzofuro[2,3-a]quinolizine-2,4′(1′H)-pyrimidin]-2′(3′H)-one hydrochloride. Non-specific binding was estimated in the presence of 10 μM WB-4101 (2-(2,6-Dimethoxyphenoxyethyl)aminomethyl-1,4-benzodioxane hydrochloride). Receptor proteins were filtered and washed, the filters were then counted to determine [^3H]MK-912 specifically bound. Compounds were screened at 1 μM or lower, using 1% DMSO as vehicle. Compounds were tested in this biochemical assay and percent inhibition of specific binding was determined. Biochemical assay results are presented as the percent inhibition of specific binding in Tables B1A-B1D.

[2] = biological target: T2, human recombinant adrenergic α1D receptor (Homo sapiens, UniProt P25100); test: Radioligand binding assay, adrenergic α1D ([3H]Prazosin); settings: compound at 0.1 μM; 0.6 nM [3H]Prazosin; HEK-293 cells; read-out: Percentage inhibition of ligand binding, Adrenergic α1D
T2 construct: expressed in transfected cells; host or cells: human embryonic kidney (HEK-293) cells
T2 sequence (P25100 1-572): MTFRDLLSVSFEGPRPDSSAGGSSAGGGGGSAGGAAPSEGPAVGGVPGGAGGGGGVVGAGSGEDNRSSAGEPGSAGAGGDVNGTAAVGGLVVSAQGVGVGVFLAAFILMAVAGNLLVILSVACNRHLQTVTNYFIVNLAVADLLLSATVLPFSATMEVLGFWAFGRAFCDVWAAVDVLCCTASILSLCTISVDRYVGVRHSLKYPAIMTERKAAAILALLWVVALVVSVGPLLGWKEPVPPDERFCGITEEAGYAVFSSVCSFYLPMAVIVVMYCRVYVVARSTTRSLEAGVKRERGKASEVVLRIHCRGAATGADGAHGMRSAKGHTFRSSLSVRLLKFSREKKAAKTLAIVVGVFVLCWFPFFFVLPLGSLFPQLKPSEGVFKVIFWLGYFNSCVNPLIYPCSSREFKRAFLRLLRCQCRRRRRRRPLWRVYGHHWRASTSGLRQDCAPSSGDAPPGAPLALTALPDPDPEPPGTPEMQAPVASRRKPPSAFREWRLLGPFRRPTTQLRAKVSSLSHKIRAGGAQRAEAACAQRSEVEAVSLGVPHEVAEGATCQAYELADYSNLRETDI
Description: To evaluate in radioligand binding assays the activity of compounds of the invention, human recombinant adrenergic α1D receptor expressed in human embryonic kidney (HEK-293) cells (Kenny, B. et al, Br. J. Pharmacol. 115(6):981, 1995) in a 50 mM Tris-HCl buffer, pH 7.4, was used. Compounds were incubated with 0.6 nM [3H]Prazosin for 60 min at 25° C. Non-specific binding was estimated in the presence of 10 μM phentolamine. Receptor proteins were filtered and washed, the filters were then counted to determine [3H]Prazosin specifically bound. Compounds were screened at 1 μM or lower, using 1% DMSO as vehicle. Biochemical assay results are presented as the percent inhibition of specific binding in Tables B1A-B1D.

[3] = biological target: T3, human recombinant adrenergic α2B receptor (Homo sapiens, UniProt P18089); test: Radioligand binding assay, adrenergic α2B ([3H]Rauwolscine); settings: compound at 0.1 μM; 2.5 nM [3H]Rauwolscine; CHO-K1 cells; read-out: Percentage inhibition of ligand binding, Adrenergic α2B
T3 construct: expressed in transfected cells; host or cells: Chinese hamster ovary (CHO) K1 cells
T3 sequence (P18089 1-450): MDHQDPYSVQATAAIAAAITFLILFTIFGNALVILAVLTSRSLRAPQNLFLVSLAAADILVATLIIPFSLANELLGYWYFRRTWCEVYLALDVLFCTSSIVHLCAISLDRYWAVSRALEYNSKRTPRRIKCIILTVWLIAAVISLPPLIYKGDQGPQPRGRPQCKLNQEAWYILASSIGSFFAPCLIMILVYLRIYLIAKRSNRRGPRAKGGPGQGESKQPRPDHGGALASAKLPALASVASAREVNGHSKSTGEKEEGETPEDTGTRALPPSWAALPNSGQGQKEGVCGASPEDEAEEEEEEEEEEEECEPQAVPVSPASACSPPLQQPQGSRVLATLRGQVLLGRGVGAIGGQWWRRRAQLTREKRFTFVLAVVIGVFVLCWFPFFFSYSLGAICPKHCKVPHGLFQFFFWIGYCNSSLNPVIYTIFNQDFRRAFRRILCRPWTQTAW
Description: To evaluate in radioligand binding assays the activity of compounds, human recombinant adrenergic α2B receptor expressed in Chinese hamster ovary (CHO) K1 cells (Uhlen, S. et al, Eur. J. Pharmacol. 343(1):93, 1998) in a modified Tris-HCl buffer (50 mM Tris-HCl, pH 7.4, 12.5 mM MgCl2, 1 mM EDTA, 0.2% BSA) was used. Compounds were incubated with 2.5 nM [^3H]Rauwolscine for 60 min at 25° C. Non-specific binding was estimated in the presence of 10 μM Prazosin. Receptor proteins were filtered and washed, the filters were then counted to determine [^3H]Rauwolscine specifically bound. Compounds were screened at 1 μM or lower, using 1% DMSO as vehicle. Compounds were tested in this biochemical assay and percent inhibition of specific binding was determined. Biochemical assay results are presented as the percent inhibition of specific binding in Tables B1A-B1D.

[4] = biological target: T4, rat adrenergic α1B receptor (Rattus norvegicus, UniProt P15823); test: Radioligand binding assay, adrenergic α1B ([3H]Prazosin); settings: compound at 0.1 μM; 0.25 nM [3H]Prazosin; Wistar rat liver; read-out: Percentage inhibition of ligand binding, Adrenergic α1B
T4 construct: rat adrenergic α1B receptor obtained from Wistar Rat liver; from tissue; host or cells: Wistar rat liver
T4 sequence (P15823 1-515): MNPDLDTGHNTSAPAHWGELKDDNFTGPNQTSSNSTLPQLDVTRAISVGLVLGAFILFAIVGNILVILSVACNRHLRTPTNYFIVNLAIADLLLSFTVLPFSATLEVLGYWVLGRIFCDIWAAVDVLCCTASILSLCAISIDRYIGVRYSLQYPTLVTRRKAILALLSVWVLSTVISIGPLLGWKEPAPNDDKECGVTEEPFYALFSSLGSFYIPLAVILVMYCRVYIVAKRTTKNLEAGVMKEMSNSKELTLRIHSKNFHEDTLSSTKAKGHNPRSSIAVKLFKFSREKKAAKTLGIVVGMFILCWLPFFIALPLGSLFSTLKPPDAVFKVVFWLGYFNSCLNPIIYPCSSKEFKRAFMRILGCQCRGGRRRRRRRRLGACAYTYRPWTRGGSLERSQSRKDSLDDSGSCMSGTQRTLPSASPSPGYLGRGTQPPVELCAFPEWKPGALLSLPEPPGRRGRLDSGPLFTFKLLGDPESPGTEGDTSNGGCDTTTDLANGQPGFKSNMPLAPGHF
Description: To evaluate in radioligand binding assays the activity of compounds, rat adrenergic α1B receptor obtained from Wistar Rat liver (Garcia-S'ainz, J. et al, Biochem. Biophys. Res. Commun. 186:760, 1992; Michel, A. et al, Br. J. Pharmacol. 98:883, 1989) in a modified Tris-HCl buffer (50 mM Tris-HCl buffer, pH 7.4, 0.5 mM EDTA) was used. Compounds were incubated with 0.25 nM [^3H]Prazosin for 60 min at 25° C. Non-specific binding was estimated in the presence of 10 μM phentolamine. Receptor proteins were filtered and washed, the filters were then counted to determine [^3H]Prazosin specifically bound. Compounds were screened at 1 μM or lower, using 1% DMSO as vehicle. Compounds were tested in this biochemical assay and percent inhibition of specific binding was determined. Biochemical assay results are presented as the percent inhibition of specific binding in Tables B1A-B1D.

| inhibition at 0.1 µM [1] | inhibition at 0.1 µM [2] | inhibition at 0.1 µM [3] | inhibition at 0.1 µM [4] | Compound |
| --- | --- | --- | --- | --- |
| 10% | 4% | -9% | 2% | Cc1cc(-c2ccc(F)cc2)c2[nH]c3c(c2c1)CN(C)CC3 [Compound A7] |
| – | – | 14% | – | Cc1cc2c3c(c1)c1c(n3CC2c2ccc(C)nc2)CCN(C)C1 (centres unmarked) [Compound B210] |
